# Source: paper PMC8037182, “Solvothermal Synthesis of Multiple Dihydropyrimidinones at a Time as Inhibitors of Eg5” (Molecules, 2021)
# Legend:
# T24 cell line = assay: Cytotoxicity MTS assay, T24 cell line; assay type: cell-based; conditions: for OD490 Mean / OD490 Well 1 / OD490 Well 2 / OD490 Well 3: T24 cell line, first assay;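 for OD490 Mean: blank control wells received 0.025% DMSO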;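 for OD490 Well 1: blank control wells received 0.025% DMSO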;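 for OD490 Well 2: blank control wells received 0.025% DMSO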;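 for OD490 Well 3: blank control wells received 0.025% DMSO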
# How it was run: (§1)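 Absorbance at 490 nm after a 2 h MTS step at 37 °C gave cell viability. Before that, cells plated at 1000/well were treated for 24 h with compounds spanning 0.5–100 µM (final). IC50 values were fitted by non-linear regression of percent viability versus concentration.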
# Caco-2 cell line = assay: Cytotoxicity MTS assay, Caco-2 cell line; assay type: cell-based; conditions: for OD490 Mean / OD490 Well 1 / OD490 Well 2 / OD490 Well 3: Caco-2 cell line
# How it was run: as §1
structure (smiles),measurement,setting,value
CCOC(=O)c1[nH]c(C2NC(=O)NC(C)=C2C(=O)Nc2ccccc2OC)c(C(=O)OC)c1C (centres unmarked) [D3],IC50,"T24 cell line; MTS assay, 24 h exposure",> 150 µM
same,OD490 Mean,T24 cell line; 0.5μM,1.8317
same,OD490 Well 1,T24 cell line; 0.5μM,1.9267
same,OD490 Well 2,T24 cell line; 0.5μM,1.7284
same,OD490 Well 3,T24 cell line; 0.5μM,1.8399
same,OD490 Mean,T24 cell line; 1μM,1.4215
same,OD490 Well 1,T24 cell line; 1μM,1.4512
same,OD490 Well 2,T24 cell line; 1μM,1.4430
same,OD490 Well 3,T24 cell line; 1μM,1.3702
same,OD490 Mean,T24 cell line; 10μM,1.5897
same,OD490 Well 1,T24 cell line; 10μM,1.3957
same,OD490 Well 2,T24 cell line; 10μM,1.6776
same,OD490 Well 3,T24 cell line; 10μM,1.6957
same,OD490 Mean,T24 cell line; 25μM,1.4932
same,OD490 Well 1,T24 cell line; 25μM,1.4267
same,OD490 Well 2,T24 cell line; 25μM,1.6194
same,OD490 Well 3,T24 cell line; 25μM,1.4336
same,OD490 Mean,T24 cell line; 50μM,1.4228
same,OD490 Well 1,T24 cell line; 50μM,1.3624
same,OD490 Well 2,T24 cell line; 50μM,1.4440
same,OD490 Well 3,T24 cell line; 50μM,1.4620
same,OD490 Mean,T24 cell line; 100μM,1.3750
same,OD490 Well 1,T24 cell line; 100μM,1.3903
same,OD490 Well 2,T24 cell line; 100μM,1.4568
same,OD490 Well 3,T24 cell line; 100μM,1.2780
same,OD490 Mean,"Caco-2 cell line; 0.5μM, first assay",0.6387
same,OD490 Well 1,"Caco-2 cell line; 0.5μM, first assay",0.6262
same,OD490 Well 2,"Caco-2 cell line; 0.5μM, first assay",0.6384
same,OD490 Well 3,"Caco-2 cell line; 0.5μM, first assay",0.6515
same,OD490 Mean,"Caco-2 cell line; 0.5μM, second assay",0.7146
same,OD490 Well 1,"Caco-2 cell line; 0.5μM, second assay",0.7283
same,OD490 Well 2,"Caco-2 cell line; 0.5μM, second assay",0.7863
same,OD490 Well 3,"Caco-2 cell line; 0.5μM, second assay",0.6291
same,OD490 Mean,"Caco-2 cell line; 0.5μM, third assay",0.6707
same,OD490 Well 1,"Caco-2 cell line; 0.5μM, third assay",0.6256
same,OD490 Well 2,"Caco-2 cell line; 0.5μM, third assay",0.6879
same,OD490 Well 3,"Caco-2 cell line; 0.5μM, third assay",0.6985
same,OD490 Mean,"Caco-2 cell line; 1μM, first assay",0.6598
same,OD490 Well 1,"Caco-2 cell line; 1μM, first assay",0.6405
same,OD490 Well 2,"Caco-2 cell line; 1μM, first assay",0.6612
same,OD490 Well 3,"Caco-2 cell line; 1μM, first assay",0.6777
same,OD490 Mean,"Caco-2 cell line; 1μM, second assay",0.6524
same,OD490 Well 1,"Caco-2 cell line; 1μM, second assay",0.6596
same,OD490 Well 2,"Caco-2 cell line; 1μM, second assay",0.7226
same,OD490 Well 3,"Caco-2 cell line; 1μM, second assay",0.5749
same,OD490 Mean,"Caco-2 cell line; 1μM, third assay",0.7014
same,OD490 Well 1,"Caco-2 cell line; 1μM, third assay",0.6954
same,OD490 Well 2,"Caco-2 cell line; 1μM, third assay",0.6888
same,OD490 Well 3,"Caco-2 cell line; 1μM, third assay",0.7201
same,OD490 Mean,"Caco-2 cell line; 10μM, first assay",0.6769
same,OD490 Well 1,"Caco-2 cell line; 10μM, first assay",0.6754
same,OD490 Well 2,"Caco-2 cell line; 10μM, first assay",0.6571
same,OD490 Well 3,"Caco-2 cell line; 10μM, first assay",0.6982
same,OD490 Mean,"Caco-2 cell line; 10μM, second assay",0.7108
same,OD490 Well 1,"Caco-2 cell line; 10μM, second assay",0.7146
same,OD490 Well 2,"Caco-2 cell line; 10μM, second assay",0.7063
same,OD490 Well 3,"Caco-2 cell line; 10μM, second assay",0.7114
same,OD490 Mean,"Caco-2 cell line; 10μM, third assay",0.7093
same,OD490 Well 1,"Caco-2 cell line; 10μM, third assay",0.6912
same,OD490 Well 2,"Caco-2 cell line; 10μM, third assay",0.7365
same,OD490 Well 3,"Caco-2 cell line; 10μM, third assay",0.7003
same,OD490 Mean,"Caco-2 cell line; 25μM, first assay",0.6846
same,OD490 Well 1,"Caco-2 cell line; 25μM, first assay",0.6410
same,OD490 Well 2,"Caco-2 cell line; 25μM, first assay",0.7249
same,OD490 Well 3,"Caco-2 cell line; 25μM, first assay",0.6880
same,OD490 Mean,"Caco-2 cell line; 25μM, second assay",0.6529
same,OD490 Well 1,"Caco-2 cell line; 25μM, second assay",0.662
same,OD490 Well 2,"Caco-2 cell line; 25μM, second assay",0.6871
same,OD490 Well 3,"Caco-2 cell line; 25μM, second assay",0.6097
same,OD490 Mean,"Caco-2 cell line; 25μM, third assay",0.6888
same,OD490 Well 1,"Caco-2 cell line; 25μM, third assay",0.6989
same,OD490 Well 2,"Caco-2 cell line; 25μM, third assay",0.6784
same,OD490 Well 3,"Caco-2 cell line; 25μM, third assay",0.6891
same,OD490 Mean,"Caco-2 cell line; 50μM, first assay",0.7773
same,OD490 Well 1,"Caco-2 cell line; 50μM, first assay",0.7708
same,OD490 Well 2,"Caco-2 cell line; 50μM, first assay",0.7874
same,OD490 Well 3,"Caco-2 cell line; 50μM, first assay",0.7736
same,OD490 Mean,"Caco-2 cell line; 50μM, second assay",0.7093
same,OD490 Well 1,"Caco-2 cell line; 50μM, second assay",0.7521
same,OD490 Well 2,"Caco-2 cell line; 50μM, second assay",0.7258
same,OD490 Well 3,"Caco-2 cell line; 50μM, second assay",0.6501
same,OD490 Mean,"Caco-2 cell line; 50μM, third assay",0.7169
same,OD490 Well 1,"Caco-2 cell line; 50μM, third assay",0.6532
same,OD490 Well 2,"Caco-2 cell line; 50μM, third assay",0.7354
same,OD490 Well 3,"Caco-2 cell line; 50μM, third assay",0.7621
same,OD490 Mean,"Caco-2 cell line; 100μM, first assay",0.5588
same,OD490 Well 1,"Caco-2 cell line; 100μM, first assay",0.5950
same,OD490 Well 2,"Caco-2 cell line; 100μM, first assay",0.5357
same,OD490 Well 3,"Caco-2 cell line; 100μM, first assay",0.5456
same,OD490 Mean,"Caco-2 cell line; 100μM, second assay",0.7013
same,OD490 Well 1,"Caco-2 cell line; 100μM, second assay",0.7196
same,OD490 Well 2,"Caco-2 cell line; 100μM, second assay",0.6757
same,OD490 Well 3,"Caco-2 cell line; 100μM, second assay",0.7086
same,OD490 Mean,"Caco-2 cell line; 100μM, third assay",0.7231
same,OD490 Well 1,"Caco-2 cell line; 100μM, third assay",0.7561
same,OD490 Well 2,"Caco-2 cell line; 100μM, third assay",0.7145
same,OD490 Well 3,"Caco-2 cell line; 100μM, third assay",0.6987
same,IC50,"Caco-2 cell line; MTS assay, 24 h exposure",> 150 µM
